Laboratory results reported in the supplement of paper PMC10307832.

Columns and labels:
Experiment in all cases: relative viability (nuclei count vs DMSO), 5 days (fraction); higher = more cells survive
MLN4924 + Foretinib = compound: NS(=O)(=O)OC[C@@H]1C[C@@H](n2ccc3c(N[C@H]4CCc5ccccc54)ncnc32)C[C@@H]1O [MLN4924] + COc1cc2c(Oc3ccc(NC(=O)C4(C(=O)Nc5ccc(F)cc5)CC4)cc3F)ccnc2cc1OCCCN1CCOCC1 [Foretinib] (partner 0.25 µM)
Summary of the method: (§1)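 A single step with final 0.05% Triton X-100, 1% formaldehyde and 1 ug/ml Hoechst fixed the cells and stained nuclei 5 days after treatment. Lung cancer cell lines in 1536-well plates had been treated by pin tool the day after seeding with one drug alone or a fixed anchor-drug dose plus five library-drug doses (not always all listed) in √10 steps, and nuclei were counted on 4× images. Relative viability is the ratio of nuclei in treated wells to nuclei in vehicle wells, taken as the median of duplicate plates.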

GSK126 + OSI-027 = compound: CC[C@H](C)N1C=C(C2=C(C=C(C=C21)C3=CN=C(C=C3)N4CCNCC4)C(=O)NCC5=C(C=C(NC5=O)C)C)C [GSK126] + COc1cccc2cc(-c3nc([C@H]4CC[C@H](C(=O)O)CC4)n4ncnc(N)c34)[nH]c12 [OSI-027] (partner 0.5 µM)
Summary of the method: as §1

MLN4924 + Pictilisib = compound: NS(=O)(=O)OC[C@@H]1C[C@@H](n2ccc3c(N[C@H]4CCc5ccccc54)ncnc32)C[C@@H]1O [MLN4924] + CS(=O)(=O)N1CCN(Cc2cc3nc(-c4cccc5[nH]ncc45)nc(N4CCOCC4)c3s2)CC1 [Pictilisib] (partner 1 µM)
Summary of the method: as §1

MLN4924 + Palbociclib = compound: NS(=O)(=O)OC[C@@H]1C[C@@H](n2ccc3c(N[C@H]4CCc5ccccc54)ncnc32)C[C@@H]1O [MLN4924] + CC(=O)c1c(C)c2cnc(Nc3ccc(N4CCNCC4)cn3)nc2n(C2CCCC2)c1=O [Palbociclib] (partner 0.5 µM)
Summary of the method: as §1

| Cell Line | relative viability (MLN4924 + Foretinib; first compound 0.04 µM) | relative viability (MLN4924 + Foretinib; first compound 0.1265 µM) | relative viability (MLN4924 + Foretinib; first compound 0.4 µM) | relative viability (MLN4924 + Foretinib; first compound 1.265 µM) | relative viability (MLN4924 + Foretinib; first compound 4 µM) | relative viability (GSK126 + OSI-027; first compound 0.08 µM) | relative viability (GSK126 + OSI-027; first compound 0.253 µM) | relative viability (GSK126 + OSI-027; first compound 0.8 µM) | relative viability (GSK126 + OSI-027; first compound 2.53 µM) | relative viability (GSK126 + OSI-027; first compound 8 µM) | relative viability (MLN4924 + Pictilisib; first compound 0.04 µM) | relative viability (MLN4924 + Pictilisib; first compound 0.1265 µM) | relative viability (MLN4924 + Pictilisib; first compound 0.4 µM) | relative viability (MLN4924 + Pictilisib; first compound 1.265 µM) | relative viability (MLN4924 + Pictilisib; first compound 4 µM) | relative viability (MLN4924 + Palbociclib; first compound 0.04 µM) | relative viability (MLN4924 + Palbociclib; first compound 0.1265 µM) | relative viability (MLN4924 + Palbociclib; first compound 0.4 µM) | relative viability (MLN4924 + Palbociclib; first compound 1.265 µM) | relative viability (MLN4924 + Palbociclib; first compound 4 µM) |
| --- | --- | --- | --- | --- | --- | --- | --- | --- | --- | --- | --- | --- | --- | --- | --- | --- | --- | --- | --- | --- |
| HARA | 0.838 | 0.537 | 0.83 | 0.0708 | 0.0645 | 0.543 | 0.541 | 0.476 | 0.466 | 0.392 | 0.552 | 0.388 | 0.184 | 0.0759 | 0.0734 | 0.324 | 0.233 | 0.169 | 0.0893 | 0.147 |
| HCC-15 | 0.688 | 0.219 | 0.183 | 0.109 | 0.0915 | 0.752 | 0.687 | 0.696 | 0.713 | 0.695 | 0.475 | 0.343 | 0.172 | 0.0896 | 0.107 | 0.477 | 0.172 | 0.196 | 0.0952 | 0.101 |
| HCC-44 | – | – | – | – | – | 0.623 | 0.624 | 0.595 | 0.562 | 0.706 | 0.641 | 0.474 | 0.0983 | 0.0904 | 0.127 | 1 | 0.756 | 0.793 | 0.636 | 0.45 |
| HCC-78 | 0.583 | 0.653 | 0.84 | 0.247 | 0.194 | 0.359 | 0.379 | 0.384 | 0.373 | 0.396 | 0.272 | 0.187 | 0.14 | 0.138 | 0.139 | 0.52 | 0.462 | 0.472 | 0.422 | 0.418 |
| HCC-366 | 0.907 | 0.975 | 0.925 | 0.447 | 0.0537 | 1.2 | 0.754 | 0.868 | 0.927 | 0.847 | 0.232 | 0.496 | 0.326 | 0.102 | 0.0407 | 0.389 | 0.374 | 0.336 | 0.167 | 0.0328 |
| HCC-827 | 0.993 | 0.591 | 0.568 | 0.238 | 0.144 | 0.803 | 0.83 | 0.768 | 0.768 | 0.776 | 1.12 | 0.641 | 0.808 | 0.382 | 0.311 | 0.35 | 0.325 | 0.317 | 0.173 | 0.148 |
| HOP-62 | 0.669 | 0.312 | 0.246 | 0.0894 | 0.0942 | 0.888 | 0.845 | 0.869 | 0.867 | 0.798 | 0.521 | 0.428 | 0.0949 | 0.0537 | 0.103 | 0.367 | 0.185 | 0.0998 | 0.0286 | 0.0302 |
| IA-LM | 0.765 | 0.329 | 0.135 | 0.0463 | 0.0394 | – | – | – | – | – | 0.342 | 0.145 | 0.0958 | 0.0574 | 0.0645 | – | – | – | – | – |
| NCI-H522 | – | – | – | – | – | 0.651 | 0.731 | 0.779 | 0.638 | 0.686 | – | – | – | – | – | 0.835 | 0.693 | 0.741 | 0.348 | 0.37 |
| NCI-H596 | 0.847 | 1.04 | – | 0.65 | 0.58 | 0.895 | 0.701 | 0.798 | 0.754 | 0.714 | 0.419 | 0.448 | 0.273 | 0.379 | 0.349 | – | – | – | – | – |
| NCI-H1299 | 1.01 | 0.82 | 0.499 | 0.33 | 0.176 | – | – | – | – | – | 0.378 | 0.398 | 0.153 | 0.0571 | 0.0769 | – | – | – | – | – |
| NCI-H1563 | 1.16 | 1.21 | 0.744 | 0.535 | 0.55 | 0.789 | 0.785 | 0.863 | 0.803 | 0.753 | 0.802 | 0.646 | 0.581 | 0.535 | 0.586 | – | – | – | – | – |
| NCI-H1623 | 0.704 | 0.536 | 0.468 | 0.289 | 0.294 | 0.414 | 0.473 | 0.425 | 0.504 | 0.401 | – | – | – | – | – | – | – | – | – | – |
| NCI-H1648 | – | – | – | – | – | 0.248 | – | 0.265 | 0.242 | 0.252 | – | – | – | – | – | 0.256 | 0.231 | 0.371 | 0.259 | 0.302 |
| NCI-H1703 | 0.267 | 0.226 | 0.19 | 0.173 | 0.248 | – | – | – | – | – | 0.181 | 0.162 | 0.165 | 0.155 | 0.174 | – | – | – | – | – |
| NCI-H1792 | – | – | – | – | – | 0.643 | 0.796 | 0.679 | 0.786 | 0.675 | 0.375 | 0.387 | 0.34 | 0.147 | 0.122 | 0.654 | 0.583 | 0.689 | 0.453 | 0.353 |
| NCI-H2342 | 1.17 | 1.06 | 1.24 | 0.76 | 0.472 | 0.678 | 0.616 | 0.622 | 0.626 | 0.669 | – | – | – | – | – | 0.53 | 0.575 | 0.591 | 0.635 | 0.449 |
| SW 900 | 0.762 | 0.682 | 0.315 | 0.179 | 0.107 | 0.605 | 0.505 | 0.502 | 0.473 | 0.466 | – | – | – | – | – | – | 0.439 | 0.388 | 0.231 | 0.231 |
